According to patent US6875736B2, “Methods for identifying RNA binding compounds” (priority 1999, dated 2005):
Non-standard residues stand in square brackets, D forms with d. Residues, ends and D or L forms follow the SMILES beside them.

Legend:
TAR RNA [1] = assay: On-bead screening of encoded tripeptide library with disperse red-labeled TAR RNA; assay type: binding, HIV-1; conditions: for Color: bead colour with 250 nM disperse red-labeled TAR RNA, 4° C., red after 2 days, pink-red after 3 further days; for Frequency: number of stained beads decoded with this sequence, three copies of library, bead peptides N-acetylated
Procedure: Screening the library with TAR RNA. Three copies of the tripeptide library on encoded beads, which contain more than 95% of the members of the library, were placed in an eppendoff tube and washed with water (500 μL×5) and TK buffer (50 mM Tris-HCl (pH 7.4), 20 mM KCl, 0.1% Triton X-100) (500 μL×4), which is commonly used for the formation of Tat-TAR complexes in vitro (Churcher et al. (1993) J. Mol. Biol. 230, 90-110). After filtration, the beads were suspended in TK buffer (400 μL) and bovine serum albumin (0.1 mg/mL) at room temperature for 1 hour to reduce nonspecific binding. The aqueous phase was removed, and the beads were washed with TK buffer (500 μL×3). After filtration, the beads were resuspended in […] TK buffer, 2.5 μM of bulge mutant TAR RNA was added, and the suspension was stirred at 4° C. for 1 day. The buffer was removed, the beads were resuspended in […] TK buffer, and 250 nM disperse red-dye-labeled-TAR RNA and 2.5 μM bulge mutant TAR RNA were added. After 2 days of stirring at 4° C., the buffer was removed, and the remaining beads were washed with water (500 μL×3). Two red beads were picked under a microscope and placed in separate capillary tubes. The remaining beads were further incubated with a mixture of disperse-red-dye-labeled TAR RNA and bulge mutant TAR RNA for 3 days, as described above. During the second screening, eight beads turned red. These beads were picked and placed in capillary tubes.
Decoding the structures of RNA-binding ligands. A disperse-red dye labeled encoded bead was placed in a 25 μL micro capillary tube containing dimethylformamide (DMF) (2 μL) and the bead was washed with DMF(5 μL×4). After draining the solvent, the bead was resuspended in 2 μL DMF and the micro capillary tube was centrifuged for 4 min and then flame sealed. Each capillary tube containing a bead was then irradiated with UV radiation at 350 nm for 4 hours and spun for 5 minutes in a centrifuge. The capillary tube was opened and the cleaved tag alcohols were silylated with N, O-bis(trimethylsilyl)acetamide in a micro syringe. The N, O-bis(trimethylsilyl)acetamide derivatives (1 μL) were analyzed using electron capture gas chromatography (“ECGC”). A Hewlett Packard 6890 series Gas Chromatography system, equipped with a micro electron capture detector (μ-ECD) and a HP Chemstation operating system, was used for all decoding analyses. The GC was operated in splitless inlet mode, using helium as the carrier gas. A 35 m×0.2 mm i.d.×0.33 μm film thickness HP-Ultra 1 column was used with a temperature program of 1 min isothermal at 200° C. followed by heating at 10° C./min to 320° C. The μ-ECD make up gas was nitrogen.
On-bead selection of structure-specific TAR RNA binding compounds. To identify tripeptides that bind to TAR RNA, the dye disperse red was covalently attached to TAR RNA, and the labeled RNA was incubated in a suspension of library beads made using the split synthesis method. […] Nevertheless, the dye-TAR RNA conjugate was able to enter the beads and bind in a structure-dependent manner to tripeptides attached thereto. The red color of the dye was clearly evenly distributed throughout the translucent bead. Broken beads were not selected. Peptides specific for portions of TAR RNA other than the bulge region were blocked using a relatively large concentration of an unlabeled bulge mutant TAR RNA. A small amount of detergent and low RNA concentrations (250 nM) also minimized non-specific binding.
Ligand Sequence Analysis. Upon incubating the dye-TAR RNA conjugate with the library, only two beads were stained red. These two beads were separated from the rest of the library, which was allowed to incubate with the dye-TAR RNA conjugate for 3 days at 4° C. […] At the end of the second incubation, only eight additional beads were stained pink-red.

luciferase gene = assay: Luciferase internal control in HL3T1 cells (pAL plasmid); assay type: cell-based; conditions: increasing amounts of ligand
Procedure: (§1) Inhibition of Tat trans-activation in cellular assays. […] Cells were grown in 2 mL of Dulbecco's modified Eagle medium (DMEM) supplemented with 10% fetal calf serum in 60 mm dishes at 37° C. in 5% CO2 in a tissue culture incubator. Cells were refreshed by 2 mL DMEM before transfection. Transfection was started by dropwise addition of 250 μL 2×Hepes-buffered saline and maintenance at room temperature for 10 minutes. Approximately 10 μg of plasmids (pSV2Tat and pAL) and increasing amounts of tripeptide 1 were transfected in the presence of CaCl2 (final concentration 125 mM) and the cells were incubated for 4 hours at 37° C. in a tissue culture incubator. The medium was then discarded and the cells were subjected to glycerol shock (1.5 mL of 15%) for 45 seconds. Finally, the cells were washed twice with 5 mL phosphate-buffered saline (PBS) and were grown in 3 mL DMEM. DMEM was changed at 24 hours post-transfection, and cells were harvested 48 hours post-transfection. Cells were lysed in reporter lysis buffer (Promega). Aliquots were used for CAT and luciferase assays. Both activities were normalized to protein concentration determined by using a modified Bradford assay (Bio-Rad).
(§2) Inhibition of Tat trans-activation in vivo. […] Luciferase reporter gene provides an internal control.

dye-labeled TAR RNA = assay: Equilibrium interaction of dye-labeled TAR RNA with bead-tethered tripeptide; assay type: binding, HIV-1; conditions: dye-labeled TAR RNA 1 μM, TK buffer, 4° C., 5 hours
Procedure: Second, the equilibrium interaction between dye-labeled TAR RNA and a tripeptide tethered to beads was examined by incubating a suspension of beads containing tripeptide ID#1 in TK buffer (400 μL) with dye-labeled TAR RNA (1 μM) at 4° C. for 5 hours. Beads were stained red upon TAR RNA binding. The interaction between dye-labeled TAR RNA and tripeptide ID #1 is reversible and can be abolished by the addition of unlabeled TAR RNA or tripeptide ID#1 as a competitor. Finally, screening the library with dye-labeled TAR RNA was carried out in the presence of excess unlabeled bulge mutant TAR RNA, inhibiting non-specific TAR RNA-peptide interactions.

wild-type TAR RNA = assay: Solid-phase RNA-peptide binding assay (dissociation constant); set-up: species or system HIV-1; conditions: for KREL: KD of a basic Tat peptide / KD of inhibitor; for Kd: wild-type TAR RNA, TK buffer, overnight at 4° C., four independent experiments; for dissociation constant relative to tripeptide ID#1 (times higher): diastereomers of tripeptide ID#1
Source text: Solid-phase RNA-peptide binding assays. TAR RNA binding compounds found and decoded as described above (shown in Table 1) were synthesized on TENTAGEL S-NH2 (4.6 μmole). All fluorenylmethoxycarbonyl (Fmoc)-protected amino acids were purchased from Bachem (Torrance, Calif.). 1-hydroxybenzotriazole (HOBT) and diisopropylcarbodiimide (DIPCDI) were obtained from Aldrich Chemical Co., Milwaukee, Wis. Piperidine and trifluoroacetic acid were purchased from Applied Biosystems Division, Perkin-Elmer. All ligands were synthesized manually according to standard solid-phase peptide synthesis protocols. Coupling efficiencies of residues at each step were monitored using a standard Kaiser test. Deprotection of tripeptides was carried out in 10% water in trifluoroacetic acid (1 mL) for 16 hours at room temperature. After filtration of solvents, the resin was washed with water (1 mL×4), DMF (1 mL×4), and dichloromethane (1 mL×4), and dried under reduced pressure. Ten beads with attached tripeptides were placed in an Eppendorff tube and washed with TK buffer (200 μL×3). The beads were suspended in TK buffer (300 μL) and incubated with TAR RNA (1.95 μM) overnight at 4° C. The suspension was spun in a centrifuge, and the supernatant containing unbound RNA was transferred to a cuvette for optical density measurements at 260 nm using a Shimadzu UV-1601 spectrometer. Equilibrium concentrations of RNA were determined from these measurements. Given that the initial concentrations of ligand and RNA are known, and assuming simple bimolecular receptor/substrate binding, a dissociation constant (KD) was calculated from known equations in order to determine which test compounds bind TAR RNA most tightly.
To verify that this assay reflected RNA-tripeptide interactions and to determine the affinity of these tripeptides for TAR RNA, the eight tripeptides were resynthesized and their dissociation constants with wild-type TAR RNA were measured. […] To compare the RNA binding affinities of 8 ligands to natural Tat peptide, a Tat-derived peptide (Gly48 to Arg57) containing the RNA-binding region of Tat protein was synthesized (FIG. 2(b)) (SEQ. ID. NO. 2). The dissociation constant of the Tat peptide-RNA complex was determined under the same conditions used for the tripeptide-RNA complexes. […] A relative dissociation constant (KREL) can be calculated as the ratios of the Tat peptide to tripeptide dissociation constants (KD) for TAR RNA. Tripeptide ID #1 binds TAR RNA with affinities higher than the wild-type Tat peptide.

TAR RNA [2] = assay: NMR (TOCSY/NOESY) of TAR RNA with ligand; assay type: binding, HIV-1; conditions: 1 to 2 mM RNA and ligand, 5 mM phosphate buffer pH 5.5
Procedure: NMR Spectroscopy. NMR experiments were performed to determine the interaction sites of tripeptide ID#1 on TAR RNA. NMR spectra of free TAR RNA and TAR RNA complexed with tripeptide ID#1 were recorded. Due to the spectral overlap, it was impossible to follow all but a few well-isolated resonances by conventional 1-dimensional experiments. Therefore, two-dimensional NOESY and TOCSY experiments were performed. All spectra were recorded on a Bruker AMX-500 NMR spectrometer operating at 500 MHz for ^1H equipped with triple resonance probe and H-broadband inverse detection probes. The 1D and 2D ^1H spectra were recorded at approximately 1 to 2 mM RNA and tripeptide ID#1 concentrations in 5 mM phosphate buffer (pH 5.5), with up to 100 mM NaCl. All other conditions were the same as described earlier by Aboul-ela et al. ((1995) J. Mol. Biol. 253, 313-332.). Complete TAR RNA assignments were obtained. Increasing amounts of tripeptide 1 were added to TAR RNA and the spectral changes were monitored by two-dimensional TOCSY experiments. The TOCSY spectrum contains a region where only pyrimidine H5-H6 resonances are found; this region has a well-dispersed 2D spectrum. Resonances in the free RNA and RNA-ligand complexes were assigned by NOESY experiments. […]

[3] = tested on: Tat trans-activation (HIV-1 LTR promoter, CAT reporter gene); assay: Inhibition of Tat trans-activation in HL3T1 cells (CAT reporter); assay type: cell-based
Procedure: as §1, §2

For `NCCCC[C@H](N)C(=O)N[C@H](CCCCN)C(=O)N[C@@H](CC(N)=O)C(=O)O` [ID #1, H2N-(L)Lys-(D)Lys-(L)Asn-OH] (H-Lys-[dK]-Asn-OH), the Color (TAR RNA [1]) was “Red”, the Frequency (TAR RNA [1]) was 2 and the “Transcription of the luciferase gene” value (luciferase gene) was “not affected”. For the same molecule, the “bead staining upon dye-labeled TAR RNA binding” value (dye-labeled TAR RNA) was “stained red”, the KREL (wild-type TAR RNA) was 1.73 and the Kd (wild-type TAR RNA) was 420 ± 44 nM. For the same molecule, the Kd (wild-type TAR RNA; listed as tripeptide ID#1) was 441 nM, the “shift of TAR RNA resonances in TOCSY spectra” value (TAR RNA [2]) was “Resonances in the bulge region, U23 and C24, were shifted” and the Tat trans-activation inhibited ([3]; 700 nM, CAT activity) was “more than 90%”. The “Cell viability / toxicity to the cells” value (HL3T1 cells) was “not toxic”.
In the case of `N=C(N)NCCC[C@H](N)C(N)=O` [L-argininamide, reference compound], the “inhibitory effect on Tat transactivation” value ([3]; control ligands) is reported as “no inhibitory effect”.
Work on “GRKKRRQRRR [Tat peptide, reference compound]” yielded a Kd (wild-type TAR RNA) of 698 nM.
For H2N-(D)Thr-(D)Lys-(L)Asn-OH [ID #7], the Color (TAR RNA [1]) was “Pink”, the Frequency (TAR RNA [1]) was 1 and the KREL (wild-type TAR RNA) was 1.29. It also gave a Kd (wild-type TAR RNA) of 564 ± 80 nM.
H2N-(D)Thr-(D)Lys-(L)Phe-OH [ID #8] was tested, and the Color (TAR RNA [1]) was “Pink”, the Frequency (TAR RNA [1]) was 1 and the KREL (wild-type TAR RNA) was 0.35. The Kd (wild-type TAR RNA) was 2090 nM.
With H2N-(L)Arg-(D)Lys-(L)Arg-OH [ID #6] the Color (TAR RNA [1]) was “Pink”, the Frequency (TAR RNA [1]) was 1 and the KREL (wild-type TAR RNA) was 0.83. The Kd (wild-type TAR RNA) was 878 ± 80 nM.
H2N-(L)Arg-(D)Lys-(L)Asn-OH [ID #4] was tested, and the Color (TAR RNA [1]) was “Pink”, the Frequency (TAR RNA [1]) was 1 and the KREL (wild-type TAR RNA) was 0.28. The Kd (wild-type TAR RNA) was 2640 nM.
With H2N-(L)Arg-(D)Lys-(L)Val-OH [ID #5] the Color (TAR RNA [1]) was “Pink”, the Frequency (TAR RNA [1]) was 1 and the KREL (wild-type TAR RNA) was 0.07. It also gave a Kd (wild-type TAR RNA) of 10400 nM.
For H2N-(L)Lys-(D)Lys-(D)Asn-OH [ID #2], the Color (TAR RNA [1]) was “Pink”, the Frequency (TAR RNA [1]) was 1 and the KREL (wild-type TAR RNA) was 0.17. The “dissociation constant relative to tripeptide ID#1 (times higher)” value (wild-type TAR RNA) was “approximately 7 times” and the Kd (wild-type TAR RNA) was 4170 nM.
With H2N-(L)Lys-(L)Lys-(L)Asn-OH [ID #3] the Color (TAR RNA [1]) was “Pink”, the Frequency (TAR RNA [1]) was 2 and the KREL (wild-type TAR RNA) was 0.23. The “dissociation constant relative to tripeptide ID#1 (times higher)” value (wild-type TAR RNA) was “approximately 7 times” and the Kd (wild-type TAR RNA) was 3220 nM.
